Converted amounts (≈) assume the structure as drawn. “And” between values parts separate entries of the source, which are not always exact repeats. Identical values can stand only once. Like-named read-outs stand apart in the source and are kept apart here.
Experiments:
Aedes aegypti larvae = assay: Aedes aegypti killing assay (larval bioassay, two-fold dilution series); type: in vivo
Procedure: Insect killing assays. Each compound was dissolved in dimethyl sulfoxide (DMSO). Killing dose curves were constructed for each compound by producing a two-fold dilution series for each compound (e.g., comprising approximately 20 serial dilutions of a stock). Dilutions were made in sterile nutrient yeast extract salt medium (NYSM) broth. The NYSM contained 8 g/L nutrient broth powder, 0.5 g/L yeast extract, 1 mM MgCl2, 700 μM CaCl2, and 50 μM MnCl2 in water. The two-fold dilution series were tested in a killing bioassay as described below. Data were collected to construct a dose curve and determine the half-maximal lethal concentration (LC50) value.
Bioassays were performed using second or third instar Aedes aegypti larvae, with biological replication. Ae. aegpyti larvae were purchased from Benzon Research, Inc. (Carlisle, PA). Larvae were washed with sterile water before transfer to 24-well assay plates containing 1 mL of sterile water in each well. Each well contained 5 larvae. The final DMSO concentration in each assay well was 1%. Larval mortality was scored for each well at 24-hour timepoints after application. […] In Table 1, mean mortalities and standard deviations were calculated from at least three independent biological replicates. […] LC50 values were calculated using GraphPad Prism software.

[1] = system: Spodoptera frugiperda (fall armyworm) first instar larvae; assay: Spodoptera frugiperda killing assay (diet-surface overlay); type: in vivo; conditions: Spodoptera frugiperda
Procedure: Insect killing assays. Each compound was dissolved in dimethyl sulfoxide (DMSO). Killing dose curves were constructed for each compound by producing a two-fold dilution series of the compound (e.g., comprising approximately 16 serial dilutions of a stock for 3,3′-diindolylmethane and 3-((1H-Indol-2-yl)methyl)-1H-indole and comprising approximately 12 serial dilutions of a stock for 3,3′-diindolyl and 3,3′-(pyridin-4-ylmethylene)bis(1H-indole)). Dilutions were made in sterile NYSM broth as described above. The two-fold dilution series were tested in a killing bioassay as described below. Data were collected to construct a dose curve and determine the half-maximal lethal concentration (LC50) value.
Bioassays were performed using first instar larvae of the Lepidopteran species Spodoptera frugiperda (fall armyworm), with an N=16 for each concentration of compound tested. S. frugiperda larvae were purchased from Benzon Research, Inc. (Carlisle, PA). A diet-surface overlay format was used in which 1 milliliter of standard lepidopteran diet was placed in each well. One hundred microliters of sample were pipetted into each well and allowed to dry. A DMSO control was included with each set of samples.
During the development of embodiments of the technology described herein, experiments were conducted to test the killing of arundine against a panel of 11 insect species. […] Briefly, arundine was dissolved in dimethyl sulfoxide (DMSO). Killing dose curves were constructed by producing a two-fold dilution series of arundine. Dilutions were made in sterile NYSM as described. The two-fold dilution series were tested in a killing bioassay performed using first instar larvae of the species listed in Table 4, with an N=16 for each concentration of compound tested. A diet-surface overlay format was used in which 1 milliliter of standard lepidopteran diet was placed in each well. One hundred microliters of sample were pipetted into each well and allowed to dry. A DMSO control was included with each set of samples. […] Data were collected to construct a dose curve and determine the half-maximal lethal concentration (LC50) value.

Cry1Fa resistant FAW = assay: Killing of Cry1Fa resistant fall armyworm; type: in vivo, Spodoptera frugiperda; conditions: 1000 ppm BIM compound, 20 μl on diet surface; Cry1 FAW neonates; 5-7 days
Procedure: During the development of embodiments of the technology provided herein, experiments were conducted to test the killing potency of arundine-derived BIM compounds against strains of fall armyworm (FAW) that are resistant to Bacillus thuringiensis (Bt) insecticidal proteins (e.g., Cry1Fa and Vip3A). Susceptible FAW (Spodoptera frugiperda) was obtained from Benzon Research Inc, Lancaster, PA. Cry1Fa resistant FAW originating from Puerto Rico was reared in a facility by Genective (Weldon, IL). Vip3A resistant FAW originating from southern US was reared in a facility by Genective (Weldon, IL).
FAW eggs were incubated at approximately 26° C. at 50% relative humidity until eclosion (approximately 3 days) and the hatch was timed to within 12 hours of infesting the diet plates. BIM compounds were obtained from frozen stocks, thawed, suspended in 5% DMSO along with NYSM buffer to provide a solution of 2000 ppm BIM compound in a total volume of 1.0 ml, and stored at −20° C. For testing, a single tube of each BIM compound sample was thawed at 4° C. NYSM buffer was warmed to room temperature. A volume of 750 μl. NYSM buffer was added to 750 μl from each 1.0-ml volume to prepare samples of 1.5 ml BIM compound at 1000 ppm for testing. A total of three BIM preparations per BIM molecule were prepared and tested for killing potency. Compounds tested were BIM-1, 11, 25, 26, 28, 29, 30, 32, 34. A solution of 5% DMSO in NYSM buffer was used as a negative control.
A standard commercially available semi-solid lepidopteran diet was prepared following manufacturer's instructions (Frontier, multi-species diet). […] LB+Kanamycin (antibiotic) growth media is the negative control for bacterial cultures. Cry1Fa is a positive control prepared as E. coli cells expressing the full-length Cry1Fa protein resuspended in PBS buffer at half the volume of the original growth culture resulting in 2× concentration of cells. Vip3A is a positive control prepared as E. coli whole cell culture expressing Vip3A.
For each of 3 replicates, 200 μl of diet was prepared in wells of a 96-well plate and the diet plates were warmed to room temperature prior to dispensing samples. After 750 μl NYSM buffer was added to 750 μl from each 1.0-ml volume to prepare samples of 1.5 ml BIM compound at 1000 ppm for testing, BIM solutions were vortexed and 20 μl were dispensed onto the diet surface in each of 16 wells using a repeating pipettor. These steps were repeated for each sample and control for each insect population being tested. BIM compound and control solutions were allowed to absorb into the diet in a biosafety hood until the diet surface was visibly dry. Once dry, wells were sealed with a clear membrane. Two pin holes were poked through the membrane in each well to maintain appropriate humidity level and aeration. Each well was infested with a single neonate larva, and the wells were resealed with perforated membrane to prevent escape. The infested plates were incubated in environmental chambers at 26° C. and 50% relative humidity for 5-7 days. All bioassays were assessed visually to record larval mortality and growth inhibition.

[2] = first instar larvae, calculated from killing dose curves FIG. 3D to 3NN, read-out: LD50 (the source's name)

SMILES	LC50 [1, 2] [µM]	also measured
OCc1c[nH]c2ccccc12 [indole-3-carbinol]		LC50 (Aedes aegypti larvae; in vivo): 453 ± 307 µM; LC50 (μg/mL) (Aedes aegypti larvae; in vivo): 66.7 ± 45.2 µg/mL (≈ 453 µM)
Ic1ccc2c(Cc3c[nH]c4cc(I)ccc34)c[nH]c2c1 [BIM-15]	> 10000	
c1ccc(CC(c2c[nH]c3ccccc23)c2c[nH]c3ccccc23)cc1 [BIM-8]	1480	
CCCC(c1c[nH]c2cc(Cl)ccc12)c1c[nH]c2cc(Cl)ccc12 [BIM-24]	678	
Clc1ccc2c(C(c3ccccc3Br)c3c[nH]c4cc(Cl)ccc34)c[nH]c2c1 [BIM-34]	352	lethality (Cry1Fa resistant FAW): 100%
Fc1ccc2[nH]cc(Cc3c[nH]c4ccc(F)cc34)c2c1 [3,3′-methylenebis(5-fluoro-1H-indole)]		LC50 (Aedes aegypti larvae; Aedes aegypti, 72 h): 2.2 µg/mL and 7.8 µM
CC(c1c[nH]c2ccccc12)c1c[nH]c2ccccc12 [3,3′-(ethane-1,1-diyl)bis(1H-indole)]		LC50 (Aedes aegypti larvae; Aedes aegypti, 72 h): 4.2 µg/mL and 16.1 µM
N#Cc1ccc2c(Cc3c[nH]c4cc(C#N)ccc34)c[nH]c2c1 [BIM-17]	> 10000	
COc1ccc(C(c2c[nH]c3ccccc23)c2c[nH]c3ccccc23)cc1 [1,1-bis(3′-indolyl)-1-(p-methoxyphenyl)methane]		LC50 (Aedes aegypti larvae; in vivo): 66.6 ± 56.4 µM; LC50 (μg/mL) (Aedes aegypti larvae; in vivo): 23.4 ± 19.8 µg/mL (≈ 66.4 µM)
Brc1ccc2c(Cc3c[nH]c4cc(Br)ccc34)c[nH]c2c1 [BIM-14]	934	
c1ccc(C(c2c[nH]c3ccccc23)c2c[nH]c3ccccc23)cc1 [BIM-7]	1680	
Clc1ccc2[nH]cc(Cc3c[nH]c4ccc(Cl)cc34)c2c1 [BIM-10]	> 3000	
c1ccc2c(C(CCCC(c3c[nH]c4ccccc34)c3c[nH]c4ccccc34)c3c[nH]c4ccccc34)c[nH]c2c1 [BIM-27]	> 5000	
FC(F)(F)c1ccc2c(Cc3c[nH]c4cc(C(F)(F)F)ccc34)c[nH]c2c1 [BIM-21]	974	
c1ccc2[nH]ccc2c1 [indole]		LC50 (Aedes aegypti larvae; Aedes aegypti, 72 h): 40.2 µg/mL and 344 µM
O=[N+]([O-])c1ccc2c(Cc3c[nH]c4cc([N+](=O)[O-])ccc34)c[nH]c2c1 [BIM-18]		LC50 ([1]; read-out: LD50 (μM)): > 10000 µM
CC(c1c[nH]c2cc(Cl)ccc12)c1c[nH]c2cc(Cl)ccc12 [BIM-22]	< 3000	
Cn1cc(Cc2cn(C)c3ccccc23)c2ccccc21 [BIM-2]	> 3000	
CCC(c1c[nH]c2ccccc12)c1c[nH]c2ccccc12 [BIM-5]	2380	
Clc1cccc2c(Cc3c[nH]c4c(Cl)cccc34)c[nH]c12 [BIM-12]	1180	
Clc1ccc2c(C(c3cccc(Br)c3)c3c[nH]c4cc(Cl)ccc34)c[nH]c2c1 [BIM-35]	429	
Clc1cccc2[nH]cc(Cc3c[nH]c4cccc(Cl)c34)c12 [BIM-9]	1560	

— patent US20240182413A1, “INSECTICIDAL COMPOUNDS” (Pluton Biosciences, Inc., priority 2022, published 2024)
